Reference: paper PMC11237694, “Novel pentafluorosulfanyl-containing triclocarban analogs selectively kill Gram-positive bacteria” (Microbiology Spectrum, 2024)
Converted amounts (≈) assume the structure as drawn.

Experiments:
E. coli ATCC 25922 = assay: Planktonic susceptibility (MIC/MBC), 96-well broth microdilution; format: cell-based; conditions: Escherichia coli; for MBC: ATCC25922; for MIC: ATCC25922, planktonic, overnight 37°C in MHB
Experimental: (§1) All bacterial strains subjected to testing had been stored at −70°C prior to the experiment. The experiment commenced by streaking small amounts of the frozen bacterial samples onto Muller-Hinton agar (MHA) culture medium (BD Bacto, Oxoid, Basingstoke, UK Cat# X296B) and allowing for overnight incubation. Bacteria were re-cultured on MHA plates as required to confirm colony morphology and lack of contamination. Strains tested were P. aeruginosa ATCC 27853, E. coli ATCC 25922, Staphylococcus aureus ATCC 25923, MRSA ATCC 33591, S. epidermidis ATCC 12228, Klebsiella pneumoniae ATCC, P. mirabilis ATCC 35659, and 10 clinical isolates of MRSA from Foothills Hospital, Calgary, Canada. To prepare for susceptibility testing, a protocol modified from Lemire et al was used ([28]). MHB was swab-inoculated from MHA colonies and shake-incubated until turbid. Dilution of the broth with 0.9% saline was performed as necessary to match a 1.0 McFarland standard.
(§2) MIC and MBC assessments were conducted on all bacterial strains using 96-well microtiter plates. To prepare the wells for bacteria, serial dilutions of the antibacterial agents were carried out along the rows of two microtiter plates. The antibacterials were 2-fold diluted with Mueller-Hinton broth (MHB) in each column, reaching a volume of 75 µL. The 1.0 McFarland standard was diluted 15-fold in MHB, and 75 µL of inoculum was added to the wells treated with antibacterials, resulting in a total volume of 150 µL. The microtiter plates were covered and then shake-incubated overnight at 150 rpm and 37°C. MIC was determined based on visible bacterial growth. In cases of antibacterial opacity or ambiguous results, streaking of well cultures on MHA, overnight incubation, and subsequent comparison with controls were performed. MBC was determined by transferring 3 µL of culture from all MIC microtiter plate wells to 147 µL of Mueller-Hinton broth in fresh plates. These plates were shake-incubated overnight at 150 rpm and 37°C, and bacterial growth was visually inspected.

P. mirabilis ATCC 35659 = assay: as above; format: cell-based; conditions: Proteus mirabilis; for MBC: ATCC35659; for MIC: ATCC35659, planktonic, overnight 37°C in MHB
Experimental: as §1, §2

[1] = system: Staphylococcus aureus ATCC 25923; assay: as above; format: cell-based; conditions: Staphylococcus aureus, ATCC25923, S. aureus; for MIC: planktonic, overnight 37°C in MHB
Experimental: as §1, §2

[2] = system: Klebsiella pneumoniae ATCC; assay: as above; format: cell-based; conditions: K. pneumonia; for MIC: planktonic, overnight 37°C in MHB
Experimental: as §1, §2

P. aeruginosa ATCC 27853 = assay: as above; format: cell-based; conditions: Pseudomonas aeruginosa; for MBC: ATCC27853; for MIC: ATCC27853, planktonic, overnight 37°C in MHB
Experimental: as §1, §2

[3] = system: S. epidermidis ATCC 12228; assay: as above; format: cell-based, Staphylococcus epidermidis; conditions: Staphylococcus epidermidis; for MBC: ATCC12228; for MIC: ATCC12228, planktonic, overnight 37°C in MHB
Experimental: as §1, §2

MRSA ATCC 33591 = assay: as above; format: cell-based, methicillin-resistant S. aureus; conditions: Staphylococcus aureus, MRSA reference strain
Experimental: as §1
as §2, with “In cases of antibacterial opacity or ambiguous results, streaking of well cultures on MHA, overnight incubation, and subsequent comparison with controls were performed.” left out

[4] = system: 10 clinical isolates of MRSA from Foothills Hospital, Calgary; assay: Planktonic susceptibility (MIC/MBC) of MRSA clinical isolates; format: cell-based, methicillin-resistant S. aureus; conditions: Staphylococcus aureus
Experimental: as §1
as §2, with “In cases of antibacterial opacity or ambiguous results, streaking of well cultures on MHA, overnight incubation, and subsequent comparison with controls were performed.” left out

Gram-negative pathogens = system: Gram-negative pathogens; set-up: method as in PMID 12534815; conditions: cited from earlier work
Gram-positive bacteria = system: Gram-positive bacteria; set-up: method as in PMID 12534815; conditions: cited from earlier work

Structure (SMILES) | MBC (E. coli ATCC 25922) [µM] | MIC (E. coli ATCC 25922) [µM] | MBC (P. mirabilis ATCC 35659) [µM] | MIC (P. mirabilis ATCC 35659) [µM] | MBC [1] [µM] | MIC [1] [µM] | MBC [2] [µM] | MIC [2] [µM] | MBC (P. aeruginosa ATCC 27853) [µM] | MIC (P. aeruginosa ATCC 27853) [µM] | MBC [3] [µM] | MIC [3] [µM] | MBC ([4]; MRSA #1 clinical isolate) [µM] | MIC ([4]; MRSA #1 clinical isolate) [µM] | MBC ([4]; MRSA #2 clinical isolate) [µM] | MIC ([4]; MRSA #2 clinical isolate) [µM] | MBC ([4]; MRSA #3 clinical isolate) [µM] | MIC ([4]; MRSA #3 clinical isolate) [µM] | MBC ([4]; MRSA #4 clinical isolate) [µM] | MIC ([4]; MRSA #4 clinical isolate) [µM] | further results
O=C(O)c1cn(C2CC2)c2cc(N3CCNCC3)c(F)cc2c1=O [Cip, Ciprofloxacin, reference compound] | 2 (≈ 0.663 µg/mL) | 2 (≈ 0.663 µg/mL) | 800 (≈ 265 µg/mL) | 20 (≈ 6.63 µg/mL) | 80 (≈ 26.5 µg/mL) | 80 (≈ 26.5 µg/mL) | 500 (≈ 166 µg/mL) | 10 (≈ 3.31 µg/mL) | 2400 (≈ 795 µg/mL) | 61 (≈ 20.2 µg/mL) | 1200 (≈ 398 µg/mL) | 1200 (≈ 398 µg/mL) |  |  |  |  |  |  |  |  | 
O=C(Nc1ccc(Cl)cc1)Nc1cc(S(F)(F)(F)(F)F)ccc1Cl [EBP-40, 1-(2-Chloro-5-(pentafluoro-λ^6-sulfanyl)phenyl)-3-(4-chlorophenyl)urea] |  |  | 625 (≈ 254 µg/mL) | 625 (≈ 254 µg/mL) | 1200 (≈ 489 µg/mL) | 480 (≈ 195 µg/mL) | > 5000 | > 5000 |  |  | 900 (≈ 366 µg/mL) | 1200 (≈ 489 µg/mL) | 1200 (≈ 489 µg/mL) | 20 (≈ 8.14 µg/mL) | 40 (≈ 16.3 µg/mL) | 20 (≈ 8.14 µg/mL) | 160 (≈ 65.2 µg/mL) | 80 (≈ 32.6 µg/mL) | 160 (≈ 65.2 µg/mL) | 40 (≈ 16.3 µg/mL) | MBC (MRSA ATCC 33591): 610 µM (≈ 248 µg/mL); MIC (MRSA ATCC 33591; planktonic, overnight 37°C in MHB): 150 µM (≈ 61.1 µg/mL); MBC ([4]; MRSA #5 clinical isolate): 40 µM (≈ 16.3 µg/mL); MIC ([4]; MRSA #5 clinical isolate): 20 µM (≈ 8.14 µg/mL); MBC ([4]; MRSA #6 clinical isolate): 160 µM (≈ 65.2 µg/mL); MIC ([4]; MRSA #6 clinical isolate): 40 µM (≈ 16.3 µg/mL); MBC ([4]; MRSA #7 clinical isolate): 80 µM (≈ 32.6 µg/mL); MIC ([4]; MRSA #7 clinical isolate): 40 µM (≈ 16.3 µg/mL); MBC ([4]; MRSA #8 clinical isolate): 80 µM (≈ 32.6 µg/mL); MIC ([4]; MRSA #8 clinical isolate): 40 µM (≈ 16.3 µg/mL); MBC ([4]; MRSA #9 clinical isolate): 80 µM (≈ 32.6 µg/mL); MIC ([4]; MRSA #9 clinical isolate): 20 µM (≈ 8.14 µg/mL)
CNC(C)C1CCC(N)C(OC2C(N)CC(N)C(OC3OCC(C)(O)C(NC)C3O)C2O)O1 (stereo not shown) [Gen, Gentamicin, reference compound] | 10 (≈ 4.78 µg/mL) | 10 (≈ 4.78 µg/mL) | 50 (≈ 23.9 µg/mL) | 1 (≈ 0.478 µg/mL) | 40 (≈ 19.1 µg/mL) | 40 (≈ 19.1 µg/mL) | 50 (≈ 23.9 µg/mL) | 1 (≈ 0.478 µg/mL) | 1200 (≈ 573 µg/mL) | 12 (≈ 5.73 µg/mL) | 300 (≈ 143 µg/mL) | 300 (≈ 143 µg/mL) | 1600 (≈ 764 µg/mL) | 100 (≈ 47.8 µg/mL) | 200 (≈ 95.5 µg/mL) | 50 (≈ 23.9 µg/mL) | 50 (≈ 23.9 µg/mL) | 50 (≈ 23.9 µg/mL) | 50 (≈ 23.9 µg/mL) | 50 (≈ 23.9 µg/mL) | MBC ([4]; MRSA #5 clinical isolate): 6250 µM (≈ 2990 µg/mL); MIC ([4]; MRSA #5 clinical isolate): 800 µM (≈ 382 µg/mL); MBC ([4]; MRSA #6 clinical isolate): 25000 µM (≈ 11900 µg/mL); MIC ([4]; MRSA #6 clinical isolate): 3000 µM (≈ 1430 µg/mL); MBC ([4]; MRSA #7 clinical isolate): 1600 µM (≈ 764 µg/mL); MIC ([4]; MRSA #7 clinical isolate): 50 µM (≈ 23.9 µg/mL); MBC ([4]; MRSA #8 clinical isolate): 50 µM (≈ 23.9 µg/mL); MIC ([4]; MRSA #8 clinical isolate): 50 µM (≈ 23.9 µg/mL); MBC ([4]; MRSA #9 clinical isolate): 50 µM (≈ 23.9 µg/mL); MIC ([4]; MRSA #9 clinical isolate): 50 µM (≈ 23.9 µg/mL); MBC ([4]; MRSA #10 clinical isolate): 50 µM (≈ 23.9 µg/mL); MIC ([4]; MRSA #10 clinical isolate): 50 µM (≈ 23.9 µg/mL)
O=C(Nc1ccc(Cl)cc1)Nc1ccc(Cl)c(Cl)c1 [TCC, triclocarban] |  |  |  |  |  |  |  |  |  |  |  |  |  |  |  |  |  |  |  |  | activity against Gram-negative pathogens (Gram-negative pathogens): no activity; antibacterial action against Gram-positive bacteria (Gram-positive bacteria): antibacterial action
O=C(Nc1ccc(Cl)cc1)Nc1ccc(Cl)c(C(F)(F)F)c1 [cloflucarban, 3-trifluoromethyl-4,4′-dichlorocarbanilide] |  |  |  |  |  |  |  |  |  |  |  |  |  |  |  |  |  |  |  |  | activity against Gram-negative pathogens (Gram-negative pathogens): no activity; antibacterial action against Gram-positive bacteria (Gram-positive bacteria): antibacterial action
